Assay results as given in ChEMBL document CHEMBL1126005 (Bioorg Med Chem Lett, 1991).

Columns and labels:
Adenosine receptor A1 = biological target: T1, Adenosine receptor A1 (Rattus norvegicus, UniProt P25099); experiment: biochemical
T1 sequence (P25099 whole entry): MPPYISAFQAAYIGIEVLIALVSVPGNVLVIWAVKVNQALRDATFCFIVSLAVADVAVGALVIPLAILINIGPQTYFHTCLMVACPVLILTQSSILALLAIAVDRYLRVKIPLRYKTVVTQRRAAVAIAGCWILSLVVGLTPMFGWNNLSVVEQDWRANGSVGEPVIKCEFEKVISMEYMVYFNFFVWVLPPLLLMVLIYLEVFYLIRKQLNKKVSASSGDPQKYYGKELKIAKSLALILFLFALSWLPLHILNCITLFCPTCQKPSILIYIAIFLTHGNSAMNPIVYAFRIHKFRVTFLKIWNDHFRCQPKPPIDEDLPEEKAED

Adenosine A2 receptor = Adenosine A2 receptor (Rattus norvegicus, UniProt P29276+P30543)

Row | Ki (Adenosine receptor A1) [µM] | Ki (Adenosine A2 receptor) [µM] | SMILES
1 | 0.07 | 6 | OC[C@H]1OC(n2cnc3c(NC4CCCCCC4)nc(O)nc32)[C@H](O)[C@@H]1O (some centres undefined)
2 | 0.02 | 40 | OC[C@H]1OC(n2cnc3c(NC4CCCC4)nc(I)nc32)[C@H](O)[C@@H]1O (some centres undefined)
3 | 0.019 | 7.5 | OC[C@H]1OC(n2cnc3c(NC4CCCC4)nc(O)nc32)[C@H](O)[C@@H]1O (some centres undefined)
4 | 0.055 | 15 | OC[C@H]1OC(n2cnc3c(NC4CCC4)nc(O)nc32)[C@H](O)[C@@H]1O (some centres undefined)
5 | 0.035 | 80 | OC[C@H]1OC(n2cnc3c(NC4CC5CCC4C5)nc(O)nc32)[C@H](O)[C@@H]1O (some centres undefined)
6 | 0.04 | 15 | OC[C@H]1OC(n2cnc3c(NC4CCCCC4)nc(O)nc32)[C@H](O)[C@@H]1O (some centres undefined)
7 | 30 | 140 | OC[C@H]1OC(n2cnc3c(NC4CCC5CCCCC5C4)nc(O)nc32)[C@H](O)[C@@H]1O (some centres undefined)
